# How the values were obtained:
# [1] = test system: mouth; test: Application in mouthwash: cooling sensation; assay type: in vivo; details: mouthwash with 50 mL of 1% sol. in alcohol per liter, plus peppermint oil; 30 mL put in the mouth, swished, gargled and spit out
# Protocol: [table] All the ingredients are mixed. 30 mL of obtained solution is put in the mouth, swished around, gargled and spit out.
# [2] = test system: mouth; test: Application in toothpaste: cooling sensation felt by panelist; assay type: in vivo; details: toothgel with 2.5 g of 2% sol. in PG per 100 g, plus peppermint oil; 1 g brushed on teeth, mouth rinsed with water
# From the text: [table] The chemicals are mixed in the toothgel, and 1 g of the toothgel is put on a toothbrush and a panelist's teeth are brushed. The mouth is rinsed with water and the water is spit out.
SMILES,cooling sensation in the mouth [1],cooling sensation in the mouth [2]
"CC(C)(C)C1CCCCC1C(=O)Nc1ccc(CO)cc1 (centres unmarked) [Example 2L, 2-tert-Butyl-cyclohexanecarboxylic acid (4-hydroxymethyl-phenyl)-amide]",strong cooling sensation,–
"COc1ccc(NC(=O)C23CC4CC(CC(C4)C2)C3)cc1 [Example 2F, Adamantane-1-carboxylic acid (4-methoxy-phenyl)-amide]",–,cooling sensation

# — patent US7893110B2 (Givaudan S.A., priority 2005, dated 2011)
